Results as given in paper doi:10.1101/2024.09.27.615266v1 (biorxiv, 2024).

T1: CYP2A6 (commercial, Vivid kit Baculosomes) (Homo sapiens, UniProt P11509)
T1 sequence (P11509 1-494): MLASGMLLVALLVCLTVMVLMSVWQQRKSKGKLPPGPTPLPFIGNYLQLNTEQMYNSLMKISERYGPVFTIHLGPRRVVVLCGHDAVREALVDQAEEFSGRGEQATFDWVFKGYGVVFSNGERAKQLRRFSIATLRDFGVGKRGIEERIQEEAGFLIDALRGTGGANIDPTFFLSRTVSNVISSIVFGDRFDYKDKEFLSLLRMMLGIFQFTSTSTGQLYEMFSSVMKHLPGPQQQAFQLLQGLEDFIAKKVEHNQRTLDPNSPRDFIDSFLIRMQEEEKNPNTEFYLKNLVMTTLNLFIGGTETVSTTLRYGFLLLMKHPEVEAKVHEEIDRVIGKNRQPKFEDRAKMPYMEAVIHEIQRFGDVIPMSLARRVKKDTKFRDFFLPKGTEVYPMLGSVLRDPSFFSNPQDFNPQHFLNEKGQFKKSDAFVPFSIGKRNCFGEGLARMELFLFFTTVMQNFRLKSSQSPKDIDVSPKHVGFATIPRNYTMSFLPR


Legend:
[1] = molecular target: T1, CYP2A6 (commercial, Vivid kit Baculosomes); experiment: fluorescent 3-cyano coumarin turnover, Morrison tight-binding fit; type: biochemical
purified protein = substrate: N#Cc1cc2ccccc2oc1=O; experiment: purified protein; type: biochemical, Homo sapiens; settings: 10 nM CYP2A6, 30 μM NADPH, 0.25-32 μM substrate

| Molecule | Ki [1] | Km (purified protein) |
| --- | --- | --- |
| CCCCCC(O)/C=C/C=O (centres unmarked) [HNE] | 208 ± 35.4 µM |  |
| CYP2A6 (commercial, Vivid kit Baculosomes) (Homo sapiens) (protein) MLASGMLLVALLVCLTVMVLMSVWQQRKSKGKLPPGPTPLPFIGNYLQLNTEQMYNSLMKISERYGPVFTIHLGPRRVVVLCGHDAVREALVDQAEEFSGRGEQATFDWVFKGYGVVFSNGERAKQLRRFSIATLRDFGVGKRGIEERIQEEAGFLIDALRGTGGANIDPTFFLSRTVSNVISSIVFGDRFDYKDKEFLSLLRMMLGIFQFTSTSTGQLYEMFSSVMKHLPGPQQQAFQLLQGLEDFIAKKVEHNQRTLDPNSPRDFIDSFLIRMQEEEKNPNTEFYLKNLVMTTLNLFIGGTETVSTTLRYGFLLLMKHPEVEAKVHEEIDRVIGKNRQPKFEDRAKMPYMEAVIHEIQRFGDVIPMSLARRVKKDTKFRDFFLPKGTEVYPMLGSVLRDPSFFSNPQDFNPQHFLNEKGQFKKSDAFVPFSIGKRNCFGEGLARMELFLFFTTVMQNFRLKSSQSPKDIDVSPKHVGFATIPRNYTMSFLPR |  | 12 ± 6 µM |
